Test results as given in patent publication US20250282753A1, “COMPOUNDS USEFUL FOR REDUCING URIC ACID” (ATOM BIOSCIENCE AMERICA CORPORATION, priority 2022, published 2025).

Columns and labels:
[1] = test system: potassium oxonate-induced hyperuricemic rats; test: Serum uric acid in potassium oxonate-induced hyperuricemic rats, single gavage (Example 34); format: in vivo, SD rats; details: for Uric acid 1 h / Uric acid 3 h / Uric acid 5 h: serum, mean ± SD; for Uric acid 1 h: 1 h after potassium oxonate injection; for Uric acid 3 h: 3 h after potassium oxonate injection; for Uric acid 5 h: 5 h after potassium oxonate injection
Experimental: 36 male SD rats weighed approximately 200-230 g after one week of adaptation. […] The drugs in each group were prepared into a corresponding concentration suspension, and the administration volume was 0.5 mL/100 g.
After the rats in each group were purchased and adapted to feeding, they were fasted for 12 h, and intraperitoneally injected with potassium oxonate at a dose of 300 mg/kg to establish the model. After 0.5 h of model establishment, each test drug group was gavaged once. Blood was collected from the retro-orbital venous plexus before and 1, 3, and 5 h after potassium oxonate injection. The samples were centrifuged at 3500 rpm for 10 min. 30 μL of serum was collected to determine the uric acid level at each time point.
The measurement data of each test were expressed as (mean)+standard deviation). The comparison between groups used ANOVA-Dunnett T test to examine the significance. P<0.05 was used as the significance index, and P<0.01 was used as the extremely significant index.

[2] = test system: potassium oxonate-induced hyperuricemic rats; test: Serum uric acid in potassium oxonate-induced hyperuricemic rats, 3 days of gavage (Example 35); format: in vivo, SD rats
Experimental: Compound 13 was a light yellow powder, and compounds 38 and 41 are pseudo-white powders, which are triturated with 0.5% CMC-Na just prior to use to prepare a 0.4 mg/mL suspension for gavage.
36 male SD rats weighed approximately 220-240 g after one week of adaptation. […] The drugs in each group were prepared into a corresponding concentration suspension, and the administration volume was 0.5 mL/100 g.
After the rats in each group were purchased and adapted to feeding, they were fasted for 12 h, and, intraperitoneally, injected with⋅ potassium⋅ gxonate at a⋅dose of 300 mg/kg to establish the model. 0.5 h after modeling, each test drug group was gavaged once. The drug was administered continuously for 3 days. On day 3, blood samples was collected from the retro-orbital venous plexus before and 1, 3, and 5 h after potassium oxonate injection. The samples were centrifuged at 3500 rpm for 10 min, and 30 μL of serum was collected to determine the uric acid level at each time point.
The measurement data of each test were expressed as (mean)±standard deviation). The comparison between groups used ANOVA-Dunnett T test to examine the significance. P<0.05 was used as the significance index, and P<0.01 was used as the extremely significant index.

[3] = cited from earlier work; for Sudden cardiac death, number of cases / Sudden cardiac death, share of group: per treatment group
[4] = allopurinol used at the maximum dose; cited from earlier work
[5] = cited from earlier work
[6] = Febuxostat group vs allopurinol group

Cc1nc(-c2ccc(OCC(C)C)c(C#N)c2)sc1C(=O)O [Febuxostat, reference compound]
serum uric acid level compared with the model group at the same time point ([1]; 1 mg/kg and 2 mg/kg, 1, 3, and 5 h after modeling, P<0.01): significantly reduce | Uric acid 1 h ([1]; 1 mg/kg gavage once): 78.0 ± 17.5 µmol/L | Uric acid 3 h ([1]; 1 mg/kg gavage once): 63.3 ± 13.8 µmol/L | Uric acid 5 h ([1]; 1 mg/kg gavage once): 59.0 ± 9.8 µmol/L | Uric acid 1 h ([1]; 2 mg/kg gavage once): 40.6 ± 10.6 µmol/L | Uric acid 3 h ([1]; 2 mg/kg gavage once): 50.1 ± 10.7 µmol/L | Uric acid 5 h ([1]; 2 mg/kg gavage once): 61.4 ± 7.1 µmol/L | serum uric acid level compared with the model group at the same time point ([2]; 2 mg/kg for 3 days, 1, 3, and 5 h after modeling, P<0.01): significantly reduce | Uric acid 0 h ([2]; serum, 2 mg/kg gavage for 3 days, day 3, 0 h, before potassium oxonate injection, mean ± SD, n=6): 39.2 ± 6.2 µmol/L | Uric acid 1 h ([2]; serum, 2 mg/kg gavage for 3 days, day 3, 1 h after potassium oxonate injection, mean ± SD): 34.4 ± 7.1 µmol/L | Uric acid 3 h ([2]; serum, 2 mg/kg gavage for 3 days, day 3, 3 h after potassium oxonate injection, mean ± SD): 31.2 ± 7.6 µmol/L | Uric acid 5 h ([2]; serum, 2 mg/kg gavage for 3 days, day 3, 5 h after potassium oxonate injection, mean ± SD): 24.7 ± 4.7 µmol/L | increase in all-cause mortality [3, 6]: 22% | increase in cardiovascular mortality [3, 6]: 34% | all-cause mortality, HR ([3]; Febuxostat vs allopurinol group, 95% CI 1.01-1.47): 1.22 | cardiovascular mortality, HR ([3]; Febuxostat vs allopurinol group, 95% CI 1.03-1.73): 1.34 | overall risk of adverse cardiovascular events, HR ([3]; Febuxostat vs allopurinol group, average of 32 months of treatment, 95% CI 0.87-1.23): 1.03 | Sudden cardiac death, number of cases [3]: 83 cases | Sudden cardiac death, share of group [3]: 2.7%

Oc1ncnc2[nH]ncc12 [allopurinol]
rate of subjects reaching the treatment endpoint [4]: less than 50% | Sudden cardiac death, number of cases [3]: 56 cases | Sudden cardiac death, share of group [3]: 1.8%

Pegloticase
patients experiencing severe immune allergic side effects ([5]; human, in vivo, iv): 20-40% | patients reaching the treatment endpoint of below 0.36 mmol/L ([5]; intravenous injection): 47%
